Measured values reported in ChEMBL document CHEMBL1201862, “PubChem BioAssay data set” (2004).
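Values below derive from 48-hour exposures of cells grown in 96-well plates, with endpoints linearly interpolated between the two concentrations bracketing the appropriate inhibition level. GI50 marks 50% less growth.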 The source made the active and inactive calls. No stated cut-off is given here; in the data, active = GI50 up to about 1.1 µM and inactive = higher.

What was measured:
Experiment in all cases: NCI-60 cell line screen, 48 h
MDA-MB-435 = tested on: MDA-MB-435
SF-539 = tested on: SF-539
Hs-578T = tested on: Hs-578T
NCI-H522 = tested on: NCI-H522
OVCAR-8 = tested on: OVCAR-8
DU-145 = tested on: DU-145
SN12C = tested on: SN12C
HCT-15 = tested on: HCT-15
SF-268 = tested on: SF-268
ACHN = tested on: ACHN
MOLT-4 = tested on: MOLT-4
PC-3 = tested on: PC-3
NCI-H226 = tested on: NCI-H226
SNB-75 = tested on: SNB-75
LOX IMVI = tested on: LOX IMVI
M14 = tested on: M14
SK-MEL-28 = tested on: SK-MEL-28
UACC-62 = tested on: UACC-62
UO-31 = tested on: UO-31

| SMILES | GI50 (MDA-MB-435) | GI50 (SF-539) | GI50 (Hs-578T) | GI50 (NCI-H522) | GI50 (OVCAR-8) | GI50 (DU-145) | GI50 (SN12C) | GI50 (HCT-15) [µM] | GI50 (SF-268) | GI50 (ACHN) | GI50 (MOLT-4) | GI50 (PC-3) | GI50 (NCI-H226) | GI50 (SNB-75) | GI50 (LOX IMVI) | GI50 (M14) | GI50 (SK-MEL-28) | GI50 (UACC-62) | GI50 (UO-31) |
| --- | --- | --- | --- | --- | --- | --- | --- | --- | --- | --- | --- | --- | --- | --- | --- | --- | --- | --- | --- |
| O=c1cc(N2CCCC2)[nH]c(=O)n1-c1ccc(F)cc1 | > 100 µM (inactive) | > 100 µM (inactive) | > 100 µM (inactive) | > 100 µM (inactive) | > 100 µM (inactive) | > 100 µM (inactive) | > 100 µM (inactive) | > 100 | > 100 µM (inactive) | > 100 µM (inactive) | > 100 µM (inactive) | > 100 µM (inactive) | 20.3 µM (inactive) | > 100 µM (inactive) | > 100 µM (inactive) | > 100 µM (inactive) | > 100 µM (inactive) | > 100 µM (inactive) | – |
| CN(CCCN(C)CCc1ccc(Cl)c(Cl)c1)CCCN1CCCC1 | 0.531 µM (active) | 2.88 µM (inactive) | 1.48 µM (inactive) | 1.56 µM (inactive) | 2.82 µM (inactive) | 8.71 µM (inactive) | 3.12 µM (inactive) | 2.31 | 2.12 µM (inactive) | 7.11 µM (inactive) | 0.908 µM (active) | 3.35 µM (inactive) | 2.56 µM (inactive) | 2.72 µM (inactive) | 1.52 µM (inactive) | 1.52 µM (inactive) | 1.5 µM (inactive) | 1.93 µM (inactive) | 1.23 µM (inactive) |
| O=C(CC(=O)c1ccncc1)c1ccccc1 | > 100 µM (inactive) | 63.5 µM (inactive) | > 100 µM (inactive) | 67.3 µM (inactive) | 59.6 µM (inactive) | > 100 µM (inactive) | 42.2 µM (inactive) | 35.9 | 63.5 µM (inactive) | 67.6 µM (inactive) | 38.1 µM (inactive) | > 77.8 µM (inactive) | > 100 µM (inactive) | > 63.8 µM (inactive) | 31.8 µM (inactive) | 78 µM (inactive) | > 100 µM (inactive) | 88.7 µM (inactive) | > 74.5 µM (inactive) |
| NS(=O)(=O)c1ccc(NC(=S)N/C=C2\C(=O)Oc3ccccc3C2=O)cc1 | 43.5 µM (inactive) | 44 µM (inactive) | 17.5 µM (inactive) | 23.2 µM (inactive) | 16.2 µM (inactive) | 27.4 µM (inactive) | 22.5 µM (inactive) | 39.2 | 38.5 µM (inactive) | 18.3 µM (inactive) | 53 µM (inactive) | 36.1 µM (inactive) | 12.6 µM (inactive) | 4.2 µM (inactive) | 33.6 µM (inactive) | 21.3 µM (inactive) | – | 34.8 µM (inactive) | 17.6 µM (inactive) |
| CCCCCCCCCCCCCCCCOC[C@@H](COC(c1ccccc1)(c1ccccc1)c1ccccc1)O[PH](=S)OC (stereo partly specified) | 2.24 µM (inactive) | 2.82 µM (inactive) | 15.5 µM (inactive) | 10.2 µM (inactive) | 12.1 µM (inactive) | 17 µM (inactive) | 5.32 µM (inactive) | 10.6 | 9.25 µM (inactive) | 15.7 µM (inactive) | 20.4 µM (inactive) | 5.32 µM (inactive) | 19.1 µM (inactive) | 10.3 µM (inactive) | 2.98 µM (inactive) | 3.3 µM (inactive) | – | 3.81 µM (inactive) | 16.4 µM (inactive) |
| CCCCCCCCC[C@@H]1C[C@@H]2CCC3C(C(=O)OCCCCNC(=O)OCc4ccccc4)=C(C)N=C(N1)N32 (stereo partly specified) | 2.78 µM (inactive) | 3.86 µM (inactive) | 2.51 µM (inactive) | 2.52 µM (inactive) | 2.58 µM (inactive) | 4.76 µM (inactive) | 3.13 µM (inactive) | 2.81 | 2.85 µM (inactive) | 3.15 µM (inactive) | 2.59 µM (inactive) | 2.47 µM (inactive) | 3.58 µM (inactive) | 4.59 µM (inactive) | 2.09 µM (inactive) | 2.55 µM (inactive) | 3.61 µM (inactive) | 3.44 µM (inactive) | 4.49 µM (inactive) |
| Cc1csc2c(=O)n(COCc3ccccc3)c(=O)[nH]c12 | > 100 µM (inactive) | > 100 µM (inactive) | 65 µM (inactive) | 94.8 µM (inactive) | > 100 µM (inactive) | > 100 µM (inactive) | > 100 µM (inactive) | – | > 100 µM (inactive) | > 100 µM (inactive) | > 100 µM (inactive) | > 100 µM (inactive) | > 100 µM (inactive) | > 100 µM (inactive) | > 100 µM (inactive) | > 100 µM (inactive) | > 100 µM (inactive) | – | 89.5 µM (inactive) |
| CC(C)CCNC(=O)c1ccc(CNC(=O)/C=C/c2ccc3c(c2)-c2ccccc2C3)cc1 | 52.5 µM (inactive) | > 100 µM (inactive) | 26.9 µM (inactive) | 22.6 µM (inactive) | 27.7 µM (inactive) | 44.6 µM (inactive) | > 100 µM (inactive) | 41.5 | 38.7 µM (inactive) | 57.4 µM (inactive) | 36.2 µM (inactive) | 42.9 µM (inactive) | 60 µM (inactive) | 23.7 µM (inactive) | 50.6 µM (inactive) | 74.3 µM (inactive) | 34 µM (inactive) | > 100 µM (inactive) | 42 µM (inactive) |
| C(=N\c1ccc(-c2nc3ccccc3s2)cc1)/c1cccs1 | 41.9 µM (inactive) | 59.3 µM (inactive) | 41.7 µM (inactive) | 32.1 µM (inactive) | 49.2 µM (inactive) | 69.8 µM (inactive) | 40.6 µM (inactive) | 40.6 | 34.8 µM (inactive) | 35.8 µM (inactive) | 27 µM (inactive) | 38.1 µM (inactive) | 54.2 µM (inactive) | 29.9 µM (inactive) | 46.1 µM (inactive) | 69 µM (inactive) | > 100 µM (inactive) | 42 µM (inactive) | 43.9 µM (inactive) |
| NC(CSS(=O)(=O)c1ccccc1)C(=O)O (stereo unspecified) | > 10 µM (inactive) | > 10 µM (inactive) | > 10 µM (inactive) | > 10 µM (inactive) | > 10 µM (inactive) | > 10 µM (inactive) | > 10 µM (inactive) | > 10 | > 10 µM (inactive) | > 10 µM (inactive) | > 10 µM (inactive) | > 10 µM (inactive) | > 10 µM (inactive) | > 10 µM (inactive) | > 10 µM (inactive) | > 10 µM (inactive) | > 10 µM (inactive) | > 10 µM (inactive) | > 10 µM (inactive) |
| O=C1NC(=O)C(COCc2ccccc2)C2=C1SCCC2 (stereo unspecified) | > 100 µM (inactive) | > 100 µM (inactive) | > 100 µM (inactive) | > 100 µM (inactive) | > 100 µM (inactive) | > 100 µM (inactive) | – | > 100 | > 100 µM (inactive) | > 100 µM (inactive) | > 100 µM (inactive) | > 100 µM (inactive) | > 100 µM (inactive) | > 100 µM (inactive) | > 100 µM (inactive) | > 100 µM (inactive) | > 100 µM (inactive) | – | > 100 µM (inactive) |
| Cc1ccc(NC(=O)C23CC4CC(CC(C4)C2)C3)c(C(=O)NNC(=O)c2ccc(Cl)cc2)c1 | 17.3 µM (inactive) | 18.1 µM (inactive) | 4.3 µM (inactive) | 12 µM (inactive) | 30.2 µM (inactive) | 27.6 µM (inactive) | 28.4 µM (inactive) | 17 | 23.8 µM (inactive) | 17.5 µM (inactive) | 21.5 µM (inactive) | 23.3 µM (inactive) | 17 µM (inactive) | < 0.01 µM (active) | 17 µM (inactive) | 31.8 µM (inactive) | – | 19.5 µM (inactive) | 16.5 µM (inactive) |
| CC12OC1(C)C1C(=O)OCC1C2=O (stereo unspecified) | > 100 µM (inactive) | 32.5 µM (inactive) | 22.1 µM (inactive) | 14.7 µM (inactive) | 49.9 µM (inactive) | > 100 µM (inactive) | 26.7 µM (inactive) | 55 | 37.8 µM (inactive) | 62.1 µM (inactive) | – | 52.8 µM (inactive) | 45.9 µM (inactive) | 99.3 µM (inactive) | > 100 µM (inactive) | 49.4 µM (inactive) | > 100 µM (inactive) | 99.3 µM (inactive) | > 100 µM (inactive) |
| c1cncc(CC2(c3cc4ccccc4[nH]3)OCCO2)c1 | > 100 µM (inactive) | 58.3 µM (inactive) | 96.8 µM (inactive) | > 100 µM (inactive) | > 100 µM (inactive) | > 100 µM (inactive) | > 100 µM (inactive) | > 100 | > 100 µM (inactive) | > 100 µM (inactive) | – | > 100 µM (inactive) | > 100 µM (inactive) | > 100 µM (inactive) | > 100 µM (inactive) | – | > 100 µM (inactive) | > 100 µM (inactive) | 40.6 µM (inactive) |
| O=c1[nH]c(=O)n(Cc2ccccc2CO)cc1Sc1ccccc1 | 20 µM (inactive) | 23.2 µM (inactive) | 23.1 µM (inactive) | 1.87 µM (inactive) | 17.7 µM (inactive) | 58.9 µM (inactive) | 34.8 µM (inactive) | 18.8 | 22.8 µM (inactive) | 26.5 µM (inactive) | 54.5 µM (inactive) | 33 µM (inactive) | 22.4 µM (inactive) | 36.6 µM (inactive) | – | 19.7 µM (inactive) | 34.8 µM (inactive) | 31.3 µM (inactive) | 7.4 µM (inactive) |
| CC(=O)NN(c1ccccc1)C1CCN(c2ccccc2)N1C(C)=O (stereo unspecified) | 3.18 µM (inactive) | 4.85 µM (inactive) | > 10 µM (inactive) | 7.53 µM (inactive) | > 10 µM (inactive) | > 10 µM (inactive) | > 10 µM (inactive) | 0.881 | 5.07 µM (inactive) | 2.82 µM (inactive) | 4.74 µM (inactive) | 4 µM (inactive) | > 10 µM (inactive) | > 10 µM (inactive) | 4.58 µM (inactive) | > 10 µM (inactive) | > 10 µM (inactive) | – | 3.1 µM (inactive) |
